Residual activity data for 6 compounds are collected here from the kinase profiling compilation of Christmann-Franck et al. (2016).

Common to all, as to assay: radiometric filter-binding kinase assay, Kinaseprofiler
The subject of test [1] is DDR2 (human), Q16832 [S642A]. The conditions noted are these: ATP 200 µM.
Test [2] has as its system EPHB2 (human), P29323 [A848S/K918E]. The note with it: ATP 10 µM.
The test system of test [3] is MAPK9 (human), P45984 [S51N]. The note with it: ATP 45 µM.
Test [4] concerns the target CDK2 CCNA2 (human) (UniProt P24941+P20248). The conditions noted are these: ATP 45 µM.
In test [5] the target is CDK2 CCNE1 (human) (UniProt P24941+P24864). The conditions noted are these: ATP 120 µM.
Chain of CDK2 CCNE1 (human) (P24864 whole entry, looked up, other chains not shown): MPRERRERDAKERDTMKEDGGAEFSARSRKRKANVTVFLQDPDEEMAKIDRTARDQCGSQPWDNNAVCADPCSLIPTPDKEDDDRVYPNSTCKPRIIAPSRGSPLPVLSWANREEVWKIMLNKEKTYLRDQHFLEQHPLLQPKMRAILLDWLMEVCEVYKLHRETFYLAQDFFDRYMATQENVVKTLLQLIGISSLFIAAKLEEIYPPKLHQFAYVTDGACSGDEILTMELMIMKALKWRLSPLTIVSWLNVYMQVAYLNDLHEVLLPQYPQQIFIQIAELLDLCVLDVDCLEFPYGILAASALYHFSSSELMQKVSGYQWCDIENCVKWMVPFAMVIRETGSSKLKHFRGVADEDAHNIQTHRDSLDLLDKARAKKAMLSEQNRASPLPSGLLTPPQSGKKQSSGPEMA
Test [6] has as its target CDK3 CCNE1 (human) (UniProt Q00526+P24864). The note with it: ATP 200 µM.
The target in test [7] is CDK7 CCNH MNAT1 (human) (UniProt P50613+P51948+P51946). The note with it: compound 10.0 µM; ATP 90 µM.
Chain of CDK7 CCNH MNAT1 (human) (P50613 whole entry, looked up): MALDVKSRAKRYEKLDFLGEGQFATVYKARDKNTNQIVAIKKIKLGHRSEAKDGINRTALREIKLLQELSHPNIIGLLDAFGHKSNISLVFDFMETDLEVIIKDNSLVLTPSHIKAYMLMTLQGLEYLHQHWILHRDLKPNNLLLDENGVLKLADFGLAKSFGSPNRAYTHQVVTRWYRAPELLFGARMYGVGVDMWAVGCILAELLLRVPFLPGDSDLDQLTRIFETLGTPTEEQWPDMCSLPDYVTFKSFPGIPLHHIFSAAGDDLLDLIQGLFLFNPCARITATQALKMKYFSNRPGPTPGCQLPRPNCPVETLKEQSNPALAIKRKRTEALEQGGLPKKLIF
Chain of CDK7 CCNH MNAT1 (human) (P51946 whole entry, looked up): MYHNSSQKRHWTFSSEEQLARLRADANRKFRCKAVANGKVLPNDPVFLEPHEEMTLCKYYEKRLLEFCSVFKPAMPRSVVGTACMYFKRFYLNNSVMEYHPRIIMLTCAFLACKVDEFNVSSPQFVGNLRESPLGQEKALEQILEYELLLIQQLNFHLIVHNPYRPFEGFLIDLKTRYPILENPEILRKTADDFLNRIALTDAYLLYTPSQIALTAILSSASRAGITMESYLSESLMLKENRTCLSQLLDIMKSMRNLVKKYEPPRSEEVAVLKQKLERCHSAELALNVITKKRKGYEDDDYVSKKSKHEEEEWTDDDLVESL
Chain of CDK7 CCNH MNAT1 (human) (P51948 whole entry, looked up): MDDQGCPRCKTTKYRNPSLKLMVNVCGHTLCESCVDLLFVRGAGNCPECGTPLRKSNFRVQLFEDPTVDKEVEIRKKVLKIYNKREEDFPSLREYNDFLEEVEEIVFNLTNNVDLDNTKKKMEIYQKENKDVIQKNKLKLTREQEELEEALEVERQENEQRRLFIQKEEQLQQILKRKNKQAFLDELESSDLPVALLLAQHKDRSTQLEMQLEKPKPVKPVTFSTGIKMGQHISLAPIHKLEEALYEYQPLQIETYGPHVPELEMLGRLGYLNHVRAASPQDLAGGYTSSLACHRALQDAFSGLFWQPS
Test [8] addresses MTOR FKBP1A (human) (UniProt P42345+P62942). The note with it: ATP 45 µM.
Test [9] concerns the target PRKAA2 PRKAB1 PRKAG1 (human) (UniProt P54619+P54646+Q9Y478). The conditions noted are these: ATP 45 µM.

Chain of DDR2 (human), Q16832 [S642A] (Q16832 whole entry, looked up, stated change not applied): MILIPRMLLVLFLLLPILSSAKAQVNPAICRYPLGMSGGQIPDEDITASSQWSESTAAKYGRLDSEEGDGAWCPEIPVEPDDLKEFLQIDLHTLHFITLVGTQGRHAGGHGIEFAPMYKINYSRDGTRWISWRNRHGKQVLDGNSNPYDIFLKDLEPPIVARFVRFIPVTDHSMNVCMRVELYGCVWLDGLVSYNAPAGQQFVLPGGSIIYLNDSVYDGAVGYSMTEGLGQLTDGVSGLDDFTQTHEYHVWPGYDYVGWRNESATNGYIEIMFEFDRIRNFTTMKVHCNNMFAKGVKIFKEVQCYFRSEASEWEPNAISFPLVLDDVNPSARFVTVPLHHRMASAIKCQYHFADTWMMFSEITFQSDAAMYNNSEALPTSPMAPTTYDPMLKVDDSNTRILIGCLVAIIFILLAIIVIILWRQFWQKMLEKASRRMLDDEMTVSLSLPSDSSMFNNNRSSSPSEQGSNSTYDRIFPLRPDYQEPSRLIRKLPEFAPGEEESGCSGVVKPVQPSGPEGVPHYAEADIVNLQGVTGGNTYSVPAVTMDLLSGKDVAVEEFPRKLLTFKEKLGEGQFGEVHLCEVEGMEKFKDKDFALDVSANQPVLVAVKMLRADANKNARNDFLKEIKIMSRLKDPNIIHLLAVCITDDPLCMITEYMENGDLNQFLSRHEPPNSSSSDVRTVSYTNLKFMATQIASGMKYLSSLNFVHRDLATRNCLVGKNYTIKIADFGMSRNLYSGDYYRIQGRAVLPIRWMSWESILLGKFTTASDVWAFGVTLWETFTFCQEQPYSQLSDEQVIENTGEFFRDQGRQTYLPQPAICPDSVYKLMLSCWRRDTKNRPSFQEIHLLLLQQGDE
Chain of MTOR FKBP1A (human) (P62942 whole entry, looked up, other chains not shown): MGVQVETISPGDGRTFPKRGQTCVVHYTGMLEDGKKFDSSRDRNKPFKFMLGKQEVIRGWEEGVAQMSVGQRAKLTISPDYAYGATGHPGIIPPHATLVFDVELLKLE
Chain of PRKAA2 PRKAB1 PRKAG1 (human) (P54619 whole entry, looked up): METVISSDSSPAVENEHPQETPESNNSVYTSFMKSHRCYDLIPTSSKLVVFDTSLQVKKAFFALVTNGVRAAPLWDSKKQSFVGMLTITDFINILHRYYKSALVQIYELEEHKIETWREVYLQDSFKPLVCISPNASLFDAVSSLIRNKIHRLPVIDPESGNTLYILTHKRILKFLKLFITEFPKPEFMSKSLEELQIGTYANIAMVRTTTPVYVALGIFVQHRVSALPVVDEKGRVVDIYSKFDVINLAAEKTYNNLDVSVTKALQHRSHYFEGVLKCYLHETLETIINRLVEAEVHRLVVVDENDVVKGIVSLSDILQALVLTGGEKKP
Chain of PRKAA2 PRKAB1 PRKAG1 (human) (P54646 whole entry, looked up): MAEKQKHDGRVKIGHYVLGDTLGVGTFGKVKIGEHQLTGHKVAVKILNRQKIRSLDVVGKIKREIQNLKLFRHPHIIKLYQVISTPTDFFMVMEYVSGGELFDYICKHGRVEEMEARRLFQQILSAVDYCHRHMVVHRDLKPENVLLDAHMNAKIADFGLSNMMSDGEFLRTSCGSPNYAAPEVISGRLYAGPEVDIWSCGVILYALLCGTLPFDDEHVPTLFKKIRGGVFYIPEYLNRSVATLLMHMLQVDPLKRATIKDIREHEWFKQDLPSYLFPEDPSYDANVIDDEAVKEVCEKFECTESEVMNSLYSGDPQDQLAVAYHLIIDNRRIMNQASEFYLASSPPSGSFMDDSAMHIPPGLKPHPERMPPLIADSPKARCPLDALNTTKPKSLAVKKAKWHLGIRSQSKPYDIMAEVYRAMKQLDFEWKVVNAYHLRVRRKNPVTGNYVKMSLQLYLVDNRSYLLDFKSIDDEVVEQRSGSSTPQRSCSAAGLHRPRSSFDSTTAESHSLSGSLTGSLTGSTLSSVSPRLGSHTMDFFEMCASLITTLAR
Chain of PRKAA2 PRKAB1 PRKAG1 (human) (Q9Y478 whole entry, looked up): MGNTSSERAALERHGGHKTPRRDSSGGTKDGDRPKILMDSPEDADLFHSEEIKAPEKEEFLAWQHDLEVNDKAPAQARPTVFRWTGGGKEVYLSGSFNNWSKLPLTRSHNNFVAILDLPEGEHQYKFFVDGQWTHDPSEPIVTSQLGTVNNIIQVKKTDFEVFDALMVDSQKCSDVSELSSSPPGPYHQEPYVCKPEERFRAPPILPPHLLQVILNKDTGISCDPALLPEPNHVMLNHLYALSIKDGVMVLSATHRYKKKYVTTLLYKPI
Chain of CDK2 CCNA2 (human) (P20248 whole entry, looked up, other chains not shown): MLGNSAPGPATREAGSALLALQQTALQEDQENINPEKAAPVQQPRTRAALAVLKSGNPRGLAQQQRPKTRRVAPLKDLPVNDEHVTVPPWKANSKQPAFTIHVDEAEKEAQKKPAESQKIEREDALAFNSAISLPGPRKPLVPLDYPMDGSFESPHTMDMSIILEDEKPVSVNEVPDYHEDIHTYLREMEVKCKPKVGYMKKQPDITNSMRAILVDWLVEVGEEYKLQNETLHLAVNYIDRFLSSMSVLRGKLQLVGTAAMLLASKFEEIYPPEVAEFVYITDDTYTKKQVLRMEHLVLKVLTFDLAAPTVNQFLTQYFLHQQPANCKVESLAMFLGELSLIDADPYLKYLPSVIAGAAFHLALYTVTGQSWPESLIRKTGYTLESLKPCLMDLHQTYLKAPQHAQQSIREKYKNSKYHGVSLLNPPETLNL
Chain of CDK3 CCNE1 (human) (P24864 whole entry, looked up): as the sequence (P24864 whole entry, looked up, other chains not shown) above
Chain of CDK3 CCNE1 (human) (Q00526 whole entry, looked up): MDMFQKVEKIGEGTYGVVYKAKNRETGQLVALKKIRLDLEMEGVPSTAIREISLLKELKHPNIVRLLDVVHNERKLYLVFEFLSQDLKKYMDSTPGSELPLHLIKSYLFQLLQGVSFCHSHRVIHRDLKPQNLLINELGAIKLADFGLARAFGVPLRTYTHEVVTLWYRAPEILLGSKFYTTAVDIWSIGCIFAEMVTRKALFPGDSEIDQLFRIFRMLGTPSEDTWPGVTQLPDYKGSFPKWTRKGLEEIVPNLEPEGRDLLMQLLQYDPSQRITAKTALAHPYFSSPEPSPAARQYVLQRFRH

With `O=C1Nc2ccccc2/C1=C1\Nc2ccccc2\C1=N/O`, the residual activity in test [1] (compound 1.0 µM) worked out at 94%; in test [1] (compound 10.0 µM), 87%; in [2] (compound 1.0 µM), 91%; in test [2] (compound 10.0 µM) it was 13%; in [3] (compound 1.0 µM), 55%; in [3] (compound 10.0 µM), 17%.

For `O=C1c2ccccc2-c2n[nH]c3cccc1c23`, the residual activity in test [1] (compound 1.0 µM) is 93%; in test [1] (compound 10.0 µM), 92%; in test [2] (compound 1.0 µM), 101%; in test [2] (compound 10.0 µM), 95%; in test [3] (compound 1.0 µM), 26%; in test [3] (compound 10.0 µM) it was -6%.

Take `CN[C@@H]1C[C@H]2O[C@@](C)([C@@H]1OC)n1c3ccccc3c3c4c(c5c6ccccc6n2c5c31)C(=O)NC4`: the residual activity in test [3] (compound 1.0 µM) turned out to be 52%.

On to `O=C(Nc1cccc(Nc2nccc(Nc3cccc(C(F)(F)F)c3)n2)c1)C1CC1`, for which the residual activity in [1] (compound 10.0 µM) was 35%.

With `CO[C@H]1[C@@H](OC)C[C@H](C)[C@@H](OC)C2=CC(=O)C=C(NC(=O)/C(C)=C\C=C/[C@H](OC)[C@@H](OC(N)=O)/C(C)=C\[C@@H]1C)C2=O`, the residual activity in [4] (compound 1.0 µM) came to 138%; in test [4] (compound 10.0 µM), 83%; in test [5] (compound 1.0 µM) it was 104%; in [5] (compound 10.0 µM), 91%; in test [6] (compound 1.0 µM), 100%; in test [6] (compound 10.0 µM) it was 87%. Further, the residual activity in test [7] turned out to be 101%; in test [8] (compound 1.0 µM) it was 77%; in test [8] (compound 10.0 µM) it was 89%; in test [9] (compound 1.0 µM), 92%; in [9] (compound 10.0 µM), 78%.

`COC(=O)[C@]1(O)C[C@@H]2O[C@@]1(C)n1c3ccccc3c3c4c(c5c6ccccc6n2c5c31)C(=O)NC4`: the residual activity in [3] (compound 10.0 µM) was -11%.
